Measurements taken from article PMC7502707, “Characterization and validation of a preventative therapy for hypertrophic cardiomyopathy in a murine model of the disease” (Proceedings of the National Academy of Sciences of the …, 2020).

Legend:
[1] = test system: myocytes isolated from cTnI-G203S mice; assay: Cell size of myocytes isolated from treated mice; format: in vivo, mouse; conditions: 10 μM 3×/wk/5 wk, compared to AID(S)-TAT
Procedure: Cell size was determined as previously described ([64]). Detailed methods are provided in SI Appendix.
Echocardiographic measurement of left ventricular function were performed on mice under light methoxyflurane anesthesia using an i13L probe on a Vivid 7 Dimension ultrasound system (GE Healthcare, Little Chalfont, United Kingdom) as previously described (4, 7). Echocardiographic measurements were taken on M-mode in triplicate from separate mice at a sweep speed of 200 mm/s. Each n represents the average of quantitative measurements from wt or cTnI-G203S mice for each treatment group. […] FS was calculated by the formula [(LVEDD-LVESD)/EDD] x 100.
(§1) Cell size was determined as previously described (16). […]
(§2) To measure kidney toxicity, urea and creatinine concentration was assessed using QuantiChrom Urea and Creatinine assay kits respectively (BioAssay Systems, Hayward CA). To measure liver toxicity, alanine transaminase (ALT) and aspartate transaminase (AST) concentration was measured using Alanine Transaminase and Aspartate Transaminase assay kits respectively (BioAssay Systems, Hayward CA). […]

[2] = test system: myocytes isolated from wt and cTnI-G203S mice; assay: MTT assay (formation of formazan) in myocytes isolated from treated mice; format: in vivo, mouse; conditions: myocytes from precardiomyopathic cTnI-G203S mice treated 10 μM i.p. 3×/wk/5 wk from 20 wk
Procedure: The rate of reduction of MTT (Sigma-Aldrich) to formazan by the mitochondrial electron transport chain was measured in intact mouse cardiac myocytes, as previously described ([22], [25]). Each n represents number of replicates for each treatment group from cardiac myocytes isolated from a total of six wt [AID(S)-TAT], four cTnI-G203S [AID(S)-TAT], and three (AID-TAT) mice. Detailed methods are provided in SI Appendix. […]
The rate of reduction of 3-(4,5-Dimethyl-2-thiazolyl)-2,5-diphenyl-2H-tetrazolium bromide (MTT, Sigma-Aldrich, St. Louis, Missouri) to formazan by the mitochondrial electron transport chain was measured in intact mouse cardiac myocytes as previously described (1, 9). This reaction is dependent upon the presence of reduced nicotinamide adenine dinucleotide (NADH) and reduced nicotinamide adenine dinucleotide phosphate (NADPH), and intact mitochondrial electron transport (10). Cardiac myocytes were treated with relevant drugs in 96 well plates. MTT was added to each well to a final concentration of 0.5 mg/ml and the rate of the increase in absorbance immediately measured using a spectrophotometer at 37°C (PowerWave XS, 570 nm, reference wavelength of 620 nm). The rate of the increase in absorbance in response to treatments was expressed as a percentage of the rate of the increase prior to the addition of treatments. Each n represents number of replicates for each treatment group from cardiac myocytes isolated from a total of 6 wt (AID[S]- TAT), 4 cTnI-G203S (AID[S]-TAT), and 3 (AID-TAT) mice.
Immunoblot of ICa-L protein

wt and cTnI-G203S mice = assay: Toxicity parameters: terminal serum urea, creatinine, ALT, AST and body weight; format: in vivo, mouse
Procedure: Mice were treated with 10 μM AID(S)-TAT or AID-TAT 3×/wk/5 wk (equaling 15 doses). BW was recorded prior to administration of each peptide dose, and reported as a percentage of day 1 BW. A 5 to 10% reduction in BW directed increased monitoring as recommended by The Animal Ethics Committee of The University of Western Australia in accordance with the 2008 Guidelines to Promote the Wellbeing of Animals Used for Scientific Purposes ([65]). Following completion of treatment regimen, mice were anesthetized and terminal blood collected. Serum was extracted and used to measure kidney and liver toxicity as previously described ([66]). Detailed methods are provided in SI Appendix.
Echocardiographic measurement of left ventricular function were performed on mice under light methoxyflurane anesthesia using an i13L probe on a Vivid 7 Dimension ultrasound system (GE Healthcare, Little Chalfont, United Kingdom) as previously described (4, 7). Echocardiographic measurements were taken on M-mode in triplicate from separate mice at a sweep speed of 200 mm/s. Each n represents the average of quantitative measurements from wt or cTnI-G203S mice for each treatment group. Measurements of left ventricular end diastolic diameter (LVEDD), left ventricular end systolic diameter (LVESD), fractional shortening (FS), left ventricular posterior wall in diastole (LVDPW), left ventricular posterior wall in systole (LVSPW), interventricular septum in diastole (IVSD), interventricular septum in systole (IVSS) and end diastolic diameter (EDD) were made. FS was calculated by the formula [(LVEDD-LVESD)/EDD] x 100.
as §1, §2

[3] = test system: cardiac L-type calcium channel (ICa-L); design: method as in PMID 19166857, PMID 24969422, PMID 24958783; conditions: wt myocytes; cited from earlier work
[4] = test system: myocytes isolated from wt and cTnI-G203S mice; assay: Mitochondrial membrane potential (JC-1) in myocytes isolated from treated mice; format: in vivo, mouse
Procedure: Male mice expressing the human cTnI gene encoding the human disease-causing mutation cTnI-G203S were used for all studies. […] Male mice expressing the normal human cTnI gene were used as controls (wt). Ten-week-old mice were used for in vitro studies. For in vivo studies, 20- or 30-wk-old cTnI-G203S mice were treated with 10 μM AID-TAT or AID[S]-TAT via intraperitoneal injection, 3×/wk/5 wk. In vivo dose of AID-TAT or AID[S]-TAT (10 μM) was calculated based on blood volume, equating to ∼2 mg/kg total BW. Male animal models were used to eliminate potential differences in responses due to sex. Experiments were performed in a total of 21 wt (AID[S]-TAT), 6 wt (AID-TAT), 15 cTnI-G203S (AID[S]-TAT), and 26 cTnI-G203S (AID-TAT) mice. All animals were randomly assigned to treatment groups.
Fluorescence was measured on a Hamamatsu Orca ER digital camera attached to an inverted Nikon TE2000-U microscope. Fluorescent indicator 5,5′,6,6′-tetrachloro-1,1′,3,3′-tetraethylbenzimidazolylcarbocyanine iodide was used to measure Ψm in cardiac myocytes, as previously described (JC-1, Molecular Probes) ([61]). Autofluorescence was used to measure flavoprotein oxidation in cardiac myocytes based on previously described methods ([13], [29], [62]). Responses to drugs were reported as a percentage increase from the basal average.
Cells were incubated in calcium-free HBS (supplemented with 3 mM EGTA and 200 nM JC-1) for at least 3 h prior to measuring changes in m. Sodium cyanide (NaCN, 40 mM, mitochondrial electron transport blocker) was added at the end of each experiment to collapse m, confirming that the JC-1 signal was indicative of m.
Additionally, individual 580 nm and 535 nm wavelength signals were assessed in each experiment to determine whether the fluorescent indicator was accurately measuring m. Autofluorescence was used to measure flavoprotein oxidation in cardiac myocytes based on previously described methods (ex = 480 nm, em = 535 nm, interval = 1 min, exposure = 1.5 seconds) (4, 6, 7). Carbonyl cyanide-4-(trifluoromethoxy)phenylhydrazone (FCCP, 50 μM, mitochondrial electron transport chain uncoupler) was added at the end of each experiment to increase flavoprotein oxidation confirming signal was mitochondrial in origin. Ratiometric JC-1 or flavoprotein fluorescent signals were quantified by manually tracing myocytes and subtracting an equivalent background region
Responses to drugs were reported as a percentage increase from the basal average. […]

[5] = terminal serum, 10 μM 3×/wk/5 wk

QQLEEDLKGYLDWITQAE [AID-TAT]
echocardiographic parameters and cell size ([1]; 30-wk-old cTnI-G203S mice): did not significantly improve echocardiographic parameters, or alter cell size | myocyte cell size ([1]; precardiomyopathic cTnI-G203S mice): significantly lower cell size | increase in metabolic activity (formazan from MTT) following BayK(−) [2]: reduced this response to a level comparable to that observed in wt myocytes | body weight over the course of treatment (wt and cTnI-G203S mice; 15 doses, % of day 1 BW): no significant reduction | kidney toxicity: serum urea and creatinine (wt and cTnI-G203S mice; [5]): No significant alterations | liver toxicity: serum ALT and AST (wt and cTnI-G203S mice; [5]): No significant alterations | inactivation rate of the cardiac ICa-L [3]: slows the inactivation rate | cardiac Ψm and mitochondrial metabolic activity (flavoprotein oxidation) following BayK(−) ([4]; myocytes from cTnI-G203S mice with established cardiomyopathy treated 10 μM 3×/wk/5 wk from 30 wk): does not restore cardiac Ψm or mitochondrial metabolic activity to wt levels | increase in Ψm (JC-1) following BayK(−) ([4]; myocytes from precardiomyopathic cTnI-G203S mice treated 10 μM i.p. 3×/wk/5 wk from 20 wk): reduced this response to a level comparable to that observed in wt myocytes
